These results are taken from patent US4550186A, “Binuclear copper (II) carboxylates formed from amine-carboxyboranes” (Duke University, priority 1983, dated 1985).

Assay [1] concerns the target deoxyribonucleic acid polymerase. Nature of the assay: In vitro deoxyribonucleic acid polymerase activity in isolated nuclei. Format: biochemical, mouse. The settings on record: isolated nuclei from Ehrlich ascites cells, read-out: ID50, Deoxyribonucleic acid polymerase activity. As to the method:
(§1) CF1 male mice (~30 g) were implanted with 2×10^6 Ehrlich ascites tumor cells, intraperitoneally on Day 0. Compound I was suspended by homogenation in 0.05% polysorbate.80-water and administered intraperitoneally at 10 and 20 mg/kg for 9 days to determine its effectiveness for inhibition of tumor growth. Mice were sacrificed on Day 10, and the ascites fluid was collected from the peritoneal cavity. The volume and ascrit (packed cell volume) were determined for each animal and the percent inhibition of tumor growth was calculated. For the metabolic studies, mice were treated on Days 8 and 9 with 10 mg/kg of Compound I, intraperitoneally. The animal was sacrificed on Day 10 and the ascites fluid harvested. The in vitro metabolic studies were performed at 0.25, 0.50 and 1 mmol final concentration of Compound I.
In vitro and in vivo nuclear deoxyribonucleic acid polymerase activity was determined on isolated Ehrlich ascites cell nuclei. The incubation was that described by Sawada et al [Can. Res., 34, 3341 (1974)] except that [methyl-^3 H] deoxythymidine triphosphate (82.4 Ci/mmol) was used. The acid insoluble nucleic acid was collected on GF/F filters and counted. Nuclear ribonucleic acid polymerase activities were determined on enzymes isolated from nuclei. […] The acid insoluble ribonucleic acid was collected on nitrocellulose filters and counted.

The test system of assay [2] is protein synthesis of Ehrlich ascites cells. Nature of the assay: In vivo leucine incorporation into protein. Also on record: species or system mouse. As to the method: as §1, with “The in vitro metabolic studies were performed at 0.25, 0.50 and 1 mmol final concentration of Compound I.” left out
For in vivo studies, incorporation of thymidine into deoxyribonucleic acid was determined by the method of Chae et al [Proc. Am. […] The deoxyribonucleic acid was isolated and the tritium content was determined in a toluene based scintillation fluid. The deoxyribonucleic acid concentration was determined by the diphenylamine reaction using calf thymus deoxyribonucleic acid as a standard. Uridine incorporation into ribonucleic acid was determined using 10 μCi of 5,6-^3 H-uridine (22.4 Ci/mmol). […] Leucine incorporation into protein was determined by the method of Sartorelli [Biochem. Biophys. […] Protein content was determined by the Lowry procedure using bovine serum albumin as a standard.

In the next assay the test system is deoxyribonuclease. Nature of the assay: In vitro deoxyribonuclease activity. Type of assay: biochemical, mouse. The settings on record: read-out: ID50, Deoxyribonuclease activity. As to the method:
as §1

The target in assay [3] is T1, carbamyl phosphate synthetase (Mus musculus, UniProt B2RQC6).
T1 construct: CPSase II domain of CAD; ornithine transcarbamylase used as coupling enzyme
T1 sequence (B2RQC6 2-2225): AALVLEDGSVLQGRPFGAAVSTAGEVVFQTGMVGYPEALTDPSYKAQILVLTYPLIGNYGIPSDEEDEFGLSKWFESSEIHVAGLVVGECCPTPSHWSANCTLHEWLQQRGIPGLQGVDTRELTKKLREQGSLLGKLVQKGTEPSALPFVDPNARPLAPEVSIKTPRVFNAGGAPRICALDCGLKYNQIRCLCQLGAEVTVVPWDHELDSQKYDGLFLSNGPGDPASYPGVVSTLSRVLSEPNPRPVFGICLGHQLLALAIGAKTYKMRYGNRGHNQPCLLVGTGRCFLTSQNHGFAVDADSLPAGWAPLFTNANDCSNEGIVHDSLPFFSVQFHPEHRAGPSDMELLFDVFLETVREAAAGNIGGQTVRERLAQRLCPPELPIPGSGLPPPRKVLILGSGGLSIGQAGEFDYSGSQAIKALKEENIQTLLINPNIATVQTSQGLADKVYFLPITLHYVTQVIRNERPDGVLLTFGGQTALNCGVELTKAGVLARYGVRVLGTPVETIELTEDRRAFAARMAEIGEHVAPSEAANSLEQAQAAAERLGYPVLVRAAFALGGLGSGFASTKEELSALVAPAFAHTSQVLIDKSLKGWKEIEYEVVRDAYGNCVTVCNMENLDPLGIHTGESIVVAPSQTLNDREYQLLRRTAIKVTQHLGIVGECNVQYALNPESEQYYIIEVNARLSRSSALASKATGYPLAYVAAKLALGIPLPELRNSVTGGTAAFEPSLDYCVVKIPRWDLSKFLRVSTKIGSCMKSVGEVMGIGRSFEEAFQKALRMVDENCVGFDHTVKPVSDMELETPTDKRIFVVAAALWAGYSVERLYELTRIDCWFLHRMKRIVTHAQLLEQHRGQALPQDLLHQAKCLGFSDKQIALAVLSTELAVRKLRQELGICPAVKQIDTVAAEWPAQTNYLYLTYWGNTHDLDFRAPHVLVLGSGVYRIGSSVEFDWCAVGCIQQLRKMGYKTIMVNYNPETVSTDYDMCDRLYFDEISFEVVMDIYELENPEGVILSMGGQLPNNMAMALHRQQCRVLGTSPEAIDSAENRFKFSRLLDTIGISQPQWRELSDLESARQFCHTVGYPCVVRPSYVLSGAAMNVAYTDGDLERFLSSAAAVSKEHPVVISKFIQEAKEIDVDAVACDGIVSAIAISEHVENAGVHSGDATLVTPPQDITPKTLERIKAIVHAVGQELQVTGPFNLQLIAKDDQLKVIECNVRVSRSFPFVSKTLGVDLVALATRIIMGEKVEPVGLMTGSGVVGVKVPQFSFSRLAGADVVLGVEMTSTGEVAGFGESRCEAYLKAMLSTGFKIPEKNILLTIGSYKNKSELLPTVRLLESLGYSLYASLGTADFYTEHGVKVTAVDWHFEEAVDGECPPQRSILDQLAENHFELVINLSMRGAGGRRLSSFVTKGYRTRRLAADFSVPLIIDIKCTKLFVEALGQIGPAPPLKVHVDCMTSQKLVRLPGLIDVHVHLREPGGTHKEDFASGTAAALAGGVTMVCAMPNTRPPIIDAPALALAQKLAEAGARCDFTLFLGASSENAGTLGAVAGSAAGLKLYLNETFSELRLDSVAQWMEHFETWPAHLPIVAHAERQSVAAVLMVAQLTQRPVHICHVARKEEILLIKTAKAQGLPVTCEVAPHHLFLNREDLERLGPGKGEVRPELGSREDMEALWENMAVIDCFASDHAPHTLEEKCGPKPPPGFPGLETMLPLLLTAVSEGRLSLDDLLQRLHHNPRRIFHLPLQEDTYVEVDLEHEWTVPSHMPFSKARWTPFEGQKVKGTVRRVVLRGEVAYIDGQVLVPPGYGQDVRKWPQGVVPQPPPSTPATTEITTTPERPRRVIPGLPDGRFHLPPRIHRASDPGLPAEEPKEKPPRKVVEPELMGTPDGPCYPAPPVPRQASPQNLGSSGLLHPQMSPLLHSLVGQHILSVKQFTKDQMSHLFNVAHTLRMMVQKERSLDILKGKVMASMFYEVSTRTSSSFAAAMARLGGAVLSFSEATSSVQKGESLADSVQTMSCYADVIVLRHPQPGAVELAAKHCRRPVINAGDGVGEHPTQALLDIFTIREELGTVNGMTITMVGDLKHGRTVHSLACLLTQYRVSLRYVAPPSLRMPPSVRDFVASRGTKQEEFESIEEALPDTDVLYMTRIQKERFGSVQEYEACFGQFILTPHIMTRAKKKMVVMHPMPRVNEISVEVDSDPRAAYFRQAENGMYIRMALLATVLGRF
Nature of the assay: In vivo carbamyl phosphate synthetase activity. As to the method: as §1, with “The animal was sacrificed on Day 10 and the ascites fluid harvested. The in vitro metabolic studies were performed at 0.25, 0.50 and 1 mmol final concentration of Compound I.” left out
Carbamyl phosphate synthetase activity was determined using the reaction medium of Kalman et al [Am. […] Citrulline formed from ornithine was measured at 490 nm by the method of Archibald [J. Biol. Chem., 156, 121 (1944)]. […] The ^14 CO2 generated in 15 min was trapped in 1M KOH and counted. Thymidylate synthetase activity was determined using a post-mitochondrial supernatant (9000 g×10 min) and 5 μCi of 5-^3 H-deoxyuridine monophosphate (14 Ci/mmol) according to the method of Kampf et al [ J. Med. Chem., 19, 903 (1976)]. ^14 C-Formate incorporation into purines was determined by the method of Spassova et al [Biochem. Pharmacol., 25, 923 (1976)] using 0.5 μCi of ^14 C-formic acid (52.0 mCi/mmol). […] The Rf value for xanthine monophosphate was scraped and counted. […]

The mark [4] stands for this setting: 10 mg/kg/day I.P. on Days 8 and 9.

Take “{Cu[(CH3)3 N.BH2 CO2 ]2.(CH3)3 N.BH2 COOH} [Compound I]”: the IC50 stood at 454 µM in assay [1] and 682 µM in the assay on deoxyribonuclease. Further, in assay [2] (setting [4]), the “3H-Leucine incorporation into protein” value is 48 ± 6 % Control. Moreover, the “Leucine incorporation into protein inhibited” value in assay [2] (10 day Ehrlich ascites cells) is listed as 52%. The “Carbamyl phosphate synthetase activity reduced” value in assay [3] was 23%. The “Carbamyl phosphate synthetase activity” value in assay [3] (setting [4]) is reported as 77 ± 8 % Control.
